Test results as given in PMC9250534, “Synthesis and direct assay of large macrocycle diversities by combinatorial late-stage modification at picomole scale” (Nature Communications, 2022).
Numbered stars: 1 amine (or outer) side, 2 acyl side, 3 side chain; on linkers, the order of the positions; unused ones are H or OH. Bridge positions count the residues as written; N and C are the ends. Square brackets hold non-standard residues; d marks the D form. Peptide text beside a SMILES is read from it. * marks the point of attachment. Pro(4S-NHCO(5-Cl-2-thienyl)) = O=C(N[C@@H]1CN[C@H](C(=O)O)C1)c1ccc(Cl)s1; 2Thenoyl(5-Cl) = O=C(c1ccc(Cl)s1)*; Benzoyl(4-Cl) = O=C(c1ccc(Cl)cc1)*; Cysteamide = C(CS[*:3])N[*:1]; X1 = O=C(/C=C/c1ccccc1)*; Api = NC1(C(=O)O)CCNCC1; Dap = NC[C@H](N)C(=O)O; X2 = O=C(C=Cc1ccccc1)*; Mpa = O=C(O)CCS

Target: MDM2 (Homo sapiens, UniProt Q00987)
Sequence (Q00987 whole entry): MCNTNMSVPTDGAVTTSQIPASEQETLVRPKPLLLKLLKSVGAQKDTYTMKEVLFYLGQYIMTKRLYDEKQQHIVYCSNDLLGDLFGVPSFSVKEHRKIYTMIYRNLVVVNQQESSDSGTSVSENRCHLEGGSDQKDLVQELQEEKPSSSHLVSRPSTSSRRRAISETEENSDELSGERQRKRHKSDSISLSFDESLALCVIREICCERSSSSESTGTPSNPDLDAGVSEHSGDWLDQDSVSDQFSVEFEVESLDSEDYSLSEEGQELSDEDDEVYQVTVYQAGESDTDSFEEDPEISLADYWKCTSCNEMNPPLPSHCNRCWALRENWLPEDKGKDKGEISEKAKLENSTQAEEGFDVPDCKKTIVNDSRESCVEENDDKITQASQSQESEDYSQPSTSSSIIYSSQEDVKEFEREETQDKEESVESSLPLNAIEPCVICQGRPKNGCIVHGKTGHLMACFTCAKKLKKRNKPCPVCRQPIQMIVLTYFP
Test: MDM2 binding screen: displacement of fluorescent p53 peptide probe FP53 (fluorescence polarization)
Details: crude macrocycle reactions; for fraction fluorescent probe displaced, Screen: initial screen
Summary of the method: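 Macrocycle reaction products at a final 10 µM were tested for displacement of a p53-based fluorescent peptide from human MDM2. Fluorescence anisotropy (ex 485/em 535 nm) was read once per macrocycle at 25 °C.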

Which results are given for `O=C1CCSSCCNC(=O)C(CNC(=O)c2ccc(Cl)cc2)NC(=O)C2CCCN(C2)C(=O)C(Cc2ccccc2)N1` (stereo not shown) [X F B4 D3 Acid 25]?
fraction fluorescent probe displaced, Screen (Acid 25): 0.12; fraction fluorescent probe displaced, Replicate (Acid 25): 0.22

Which “fraction fluorescent probe displaced, Screen” value (Acid 91) does the source give for `O=C(/C=C/c1ccccc1)NC[C@@H]1NC(=O)[C@H]2CCCN(C2)C(=O)[C@H](Cc2ccccc2)NC(=O)CCSSCCNC1=O` [X F B4 D3 Acid 91] here?
Its value is 0.19.

And the “fraction fluorescent probe displaced, Replicate” value (Acid 91)?
Its value is 0.17.

For `O=C1CCSSCCNC(=O)C2CC(NC(=O)c3ccc(Cl)s3)CN2C(=O)C2CCCN(C2)C(=O)C(Cc2ccccc2)N1` (stereo not shown) [X F B4 D5 Acid 14], which “fraction fluorescent probe displaced, Screen” value (Acid 14) is on record?
The value was 0.08.

And the “fraction fluorescent probe displaced, Replicate” value (Acid 14)?
Its value is 0.0465.

Which results are given for `O=C1CCSSCCNC(=O)C2(CCN(C(=O)c3ccc(Cl)s3)CC2)NC(=O)[C@H]2CCCN(C2)C(=O)[C@H](Cc2ccccc2)N1` [X F B4 D6 Acid 14]?
fraction fluorescent probe displaced, Screen (Acid 14): 0.08; fraction fluorescent probe displaced, Replicate (Acid 14): 0.20

Which “fraction fluorescent probe displaced, Screen” value (Acid 25) does the source give for `O=C1CCSSCCNC(=O)C2(CCN(C(=O)c3ccc(Cl)cc3)CC2)NC(=O)C2CCCN(C2)C(=O)C(Cc2ccccc2)N1` (stereo not shown) [X F B4 D6 Acid 25] here?
Its value is 0.15.

What about the “fraction fluorescent probe displaced, Replicate” value (Acid 25) of the same molecule?
The value was 0.07.

Which results are given for `O=C1CCSSCCNC(=O)C2(CCN(C(=O)/C=C/c3ccccc3)CC2)NC(=O)[C@H]2CCCN(C2)C(=O)[C@H](Cc2ccccc2)N1` [X F B4 D6 Acid 91]?
fraction fluorescent probe displaced, Screen (Acid 91): 0.0563; fraction fluorescent probe displaced, Replicate (Acid 91): -0.00827

How did the “fraction fluorescent probe displaced, Screen” value (Acid 91) turn out when `O=C1CCSSCCNC(=O)C2CN(C(=O)C=Cc3ccccc3)CCN2C(=O)C2CCCN(C2)C(=O)C(Cc2ccccc2)N1` (stereo not shown) [X F B4 D7 Acid 91] was run?
The value was 0.0563.

And the “fraction fluorescent probe displaced, Replicate” value (Acid 91)?
The value was 0.0168.

What does the source list for `O=C1CCSSCCNC(=O)C(CNC(=O)c2ccc(Cl)s2)NC(=O)c2cccc(c2)CNC(=O)C(Cc2ccccc2)N1` (stereo not shown) [X F B5 D3 Acid 14]?
fraction fluorescent probe displaced, Screen (Acid 14): 0.08; fraction fluorescent probe displaced, Replicate (Acid 14): -0.00432

What does the source list for `O=C(/C=C/c1ccccc1)NC[C@@H]1NC(=O)c2cccc(c2)CNC(=O)[C@H](Cc2ccccc2)NC(=O)CCSSCCNC1=O` [X F B5 D3 Acid 91]?
fraction fluorescent probe displaced, Screen (Acid 91): -0.05; fraction fluorescent probe displaced, Replicate (Acid 91): 0.04

With `O=C1CCSSCCNC(=O)[C@@H]2C[C@H](NC(=O)c3ccc(Cl)cc3)CN2C(=O)c2cccc(c2)CNC(=O)[C@H](Cc2ccccc2)N1` [X F B5 D5 Acid 25] as the molecule, how does the “fraction fluorescent probe displaced, Screen” value (Acid 25) read?
The value was 0.0244.

And the “fraction fluorescent probe displaced, Replicate” value (Acid 25)?
Its value is -0.00432.

What does the source list for `O=C1CCSSCCNC(=O)C2(CCN(C(=O)c3ccc(Cl)s3)CC2)NC(=O)c2cccc(c2)CNC(=O)C(Cc2ccccc2)N1` (stereo not shown) [X F B5 D6 Acid 14]?
fraction fluorescent probe displaced, Screen (Acid 14): 0.11; fraction fluorescent probe displaced, Replicate (Acid 14): 0.10

What does the source list for `O=C1CCSSCCNC(=O)C2(CCN(C(=O)c3ccc(Cl)cc3)CC2)NC(=O)c2cccc(c2)CNC(=O)[C@H](Cc2ccccc2)N1` [X F B5 D6 Acid 25]?
fraction fluorescent probe displaced, Screen (Acid 25): 0.0569; fraction fluorescent probe displaced, Replicate (Acid 25): 0.0465

Which “fraction fluorescent probe displaced, Screen” value (Acid 91) does the source give for `O=C1CCSSCCNC(=O)C2(CCN(C(=O)/C=C/c3ccccc3)CC2)NC(=O)c2cccc(c2)CNC(=O)[C@H](Cc2ccccc2)N1` [X F B5 D6 Acid 91] here?
The value was -0.08.

And the “fraction fluorescent probe displaced, Replicate” value (Acid 91)?
The value was -0.00827.

How did the “fraction fluorescent probe displaced, Screen” value (Acid 91) turn out when `O=C1CCSSCCNC(=O)C2CN(C(=O)C=Cc3ccccc3)CCN2C(=O)c2cccc(c2)CNC(=O)C(Cc2ccccc2)N1` (stereo not shown) [X F B5 D7 Acid 91] was run?
The value was -0.10.

What about the “fraction fluorescent probe displaced, Replicate” value (Acid 91) of the same molecule?
Its value is -0.0333.

`O=C1CCSSCCNC(=O)[C@@H]2CCCN2C(=O)[C@H](CNC(=O)c2ccc(Cl)s2)NC(=O)[C@H](Cc2ccccc2)N1` [X F D3 B1 Acid 14] ([Mpa]F[Dap](2Thenoyl(5-Cl))P-Cysteamide; disulfide 1-C) was tested. Which “fraction fluorescent probe displaced, Screen” value (Acid 14) did it give?
The value was 0.08.

And the “fraction fluorescent probe displaced, Replicate” value (Acid 14)?
The value was 0.10.

Which results are given for `O=C1CCSSCCNC(=O)[C@@H]2CCCN2C(=O)[C@H](CNC(=O)c2ccc(Cl)cc2)NC(=O)[C@H](Cc2ccccc2)N1` [X F D3 B1 Acid 25] ([Mpa]F[Dap](Benzoyl(4-Cl))P-Cysteamide; disulfide 1-C)?
fraction fluorescent probe displaced, Screen (Acid 25): 0.0569; fraction fluorescent probe displaced, Replicate (Acid 25): 0.15

With `O=C(/C=C/c1ccccc1)NC[C@@H]1NC(=O)[C@H](Cc2ccccc2)NC(=O)CCSSCCNC(=O)[C@@H]2CCCN2C1=O` [X F D3 B1 Acid 91] ([Mpa]F[Dap](X1)P-Cysteamide; disulfide 1-C) as the molecule, how does the “fraction fluorescent probe displaced, Screen” value (Acid 91) read?
Its value is -0.0241.

What about the “fraction fluorescent probe displaced, Replicate” value (Acid 91) of the same molecule?
Its value is -0.00827.

What does the source list for `O=C1CCNC(=O)C(CNC(=O)c2ccc(Cl)s2)NC(=O)C(Cc2ccccc2)NC(=O)CCSSCCN1` (stereo not shown) [X F D3 B2 Acid 14]?
fraction fluorescent probe displaced, Screen (Acid 14): 0.053; fraction fluorescent probe displaced, Replicate (Acid 14): 0.0465

For `O=C1CCNC(=O)[C@H](CNC(=O)c2ccc(Cl)cc2)NC(=O)[C@H](Cc2ccccc2)NC(=O)CCSSCCN1` [X F D3 B2 Acid 25], which “fraction fluorescent probe displaced, Screen” value (Acid 25) is on record?
The value was 0.19.

And the “fraction fluorescent probe displaced, Replicate” value (Acid 25)?
The value was 0.0211.

How did the “fraction fluorescent probe displaced, Screen” value (Acid 14) turn out when `O=C1CCSSCCNC(=O)[C@H]2CCCN(C2)C(=O)[C@H](CNC(=O)c2ccc(Cl)s2)NC(=O)[C@H](Cc2ccccc2)N1` [X F D3 B4 Acid 14] was run?
Its value is 0.053.

And the “fraction fluorescent probe displaced, Replicate” value (Acid 14)?
Its value is 0.10.

How did the “fraction fluorescent probe displaced, Screen” value (Acid 25) turn out when `O=C1CCSSCCNC(=O)[C@H]2CCCN(C2)C(=O)[C@H](CNC(=O)c2ccc(Cl)cc2)NC(=O)[C@H](Cc2ccccc2)N1` [X F D3 B4 Acid 25] was run?
Its value is 0.12.

And the “fraction fluorescent probe displaced, Replicate” value (Acid 25)?
The value was 0.10.

What does the source list for `O=C(/C=C/c1ccccc1)NC[C@@H]1NC(=O)[C@H](Cc2ccccc2)NC(=O)CCSSCCNC(=O)[C@H]2CCCN(C2)C1=O` [X F D3 B4 Acid 91]?
fraction fluorescent probe displaced, Screen (Acid 91): 0.11; fraction fluorescent probe displaced, Replicate (Acid 91): -0.0333

With `O=C1CCSSCCNC(=O)c2cccc(c2)CNC(=O)[C@H](CNC(=O)c2ccc(Cl)s2)NC(=O)[C@H](Cc2ccccc2)N1` [X F D3 B5 Acid 14] as the molecule, how does the “fraction fluorescent probe displaced, Screen” value (Acid 14) read?
The value was 0.0241.

What about the “fraction fluorescent probe displaced, Replicate” value (Acid 14) of the same molecule?
Its value is -0.03.

Which “fraction fluorescent probe displaced, Screen” value (Acid 25) does the source give for `O=C1CCSSCCNC(=O)c2cccc(c2)CNC(=O)[C@H](CNC(=O)c2ccc(Cl)cc2)NC(=O)[C@H](Cc2ccccc2)N1` [X F D3 B5 Acid 25] here?
The value was 0.0569.

What about the “fraction fluorescent probe displaced, Replicate” value (Acid 25) of the same molecule?
Its value is 0.07.

Which results are given for `O=C1CCSSCCNC(=O)[C@@H]2CCCN2C(=O)[C@@H]2C[C@H](NC(=O)c3ccc(Cl)s3)CN2C(=O)[C@H](Cc2ccccc2)N1` [X F D5 B1 Acid 14] ([Mpa]F[Pro(4S-NHCO(5-Cl-2-thienyl))]P-Cysteamide; disulfide 1-C)?
fraction fluorescent probe displaced, Screen (Acid 14): 0.14; fraction fluorescent probe displaced, Replicate (Acid 14): 0.0465

What does the source list for `O=C(C=Cc1ccccc1)NC1CC2C(=O)N3CCCC3C(=O)NCCSSCCC(=O)NC(Cc3ccccc3)C(=O)N2C1` (stereo not shown) [X F D5 B1 Acid 91]?
fraction fluorescent probe displaced, Screen (Acid 91): -0.05; fraction fluorescent probe displaced, Replicate (Acid 91): -0.11

`O=C(C=Cc1ccccc1)NC1CC2C(=O)NCCC(=O)NCCSSCCC(=O)NC(Cc3ccccc3)C(=O)N2C1` (stereo not shown) [X F D5 B2 Acid 91] was tested. Which “fraction fluorescent probe displaced, Screen” value (Acid 91) did it give?
The value was 0.08.

And the “fraction fluorescent probe displaced, Replicate” value (Acid 91)?
Its value is 0.0168.

How did the “fraction fluorescent probe displaced, Screen” value (Acid 14) turn out when `O=C1CCSSCCNC(=O)C2CCCN(C2)C(=O)C2CC(NC(=O)c3ccc(Cl)s3)CN2C(=O)C(Cc2ccccc2)N1` (stereo not shown) [X F D5 B4 Acid 14] was run?
Its value is -0.00483.

And the “fraction fluorescent probe displaced, Replicate” value (Acid 14)?
The value was 0.0211.

Which “fraction fluorescent probe displaced, Screen” value (Acid 14) does the source give for `O=C1CCSSCCNC(=O)c2cccc(c2)CNC(=O)C2CC(NC(=O)c3ccc(Cl)s3)CN2C(=O)C(Cc2ccccc2)N1` (stereo not shown) [X F D5 B5 Acid 14] here?
The value was -0.00483.

What about the “fraction fluorescent probe displaced, Replicate” value (Acid 14) of the same molecule?
The value was -0.00432.

Which “fraction fluorescent probe displaced, Screen” value (Acid 91) does the source give for `O=C(C=Cc1ccccc1)NC1CC2C(=O)NCc3cccc(c3)C(=O)NCCSSCCC(=O)NC(Cc3ccccc3)C(=O)N2C1` (stereo not shown) [X F D5 B5 Acid 91] here?
The value was -0.05.

What about the “fraction fluorescent probe displaced, Replicate” value (Acid 91) of the same molecule?
The value was -0.0333.

With `O=C1CCSSCCNC(=O)[C@@H]2CCCN2C(=O)C2(CCN(C(=O)c3ccc(Cl)cc3)CC2)NC(=O)[C@H](Cc2ccccc2)N1` [X F D6 B1 Acid 25] ([Mpa]F[Api](Benzoyl(4-Cl))P-Cysteamide; disulfide 1-C) as the molecule, how does the “fraction fluorescent probe displaced, Screen” value (Acid 25) read?
The value was 0.0244.

What about the “fraction fluorescent probe displaced, Replicate” value (Acid 25) of the same molecule?
Its value is 0.17.

For `O=C1CCSSCCNC(=O)C2CCCN2C(=O)C2(CCN(C(=O)C=Cc3ccccc3)CC2)NC(=O)C(Cc2ccccc2)N1` (stereo not shown) [X F D6 B1 Acid 91] ([Mpa]F[Api](X2)P-Cysteamide; disulfide 1-C; configuration not given here), which “fraction fluorescent probe displaced, Screen” value (Acid 91) is on record?
The value was -0.08.

What about the “fraction fluorescent probe displaced, Replicate” value (Acid 91) of the same molecule?
Its value is 0.04.

How did the “fraction fluorescent probe displaced, Screen” value (Acid 14) turn out when `O=C1CCNC(=O)C2(CCN(C(=O)c3ccc(Cl)s3)CC2)NC(=O)[C@H](Cc2ccccc2)NC(=O)CCSSCCN1` [X F D6 B2 Acid 14] was run?
The value was -0.00483.

What about the “fraction fluorescent probe displaced, Replicate” value (Acid 14) of the same molecule?
The value was 0.0465.

With `O=C1CCNC(=O)C2(CCN(C(=O)/C=C/c3ccccc3)CC2)NC(=O)[C@H](Cc2ccccc2)NC(=O)CCSSCCN1` [X F D6 B2 Acid 91] as the molecule, how does the “fraction fluorescent probe displaced, Screen” value (Acid 91) read?
The value was 0.03.

What about the “fraction fluorescent probe displaced, Replicate” value (Acid 91) of the same molecule?
The value was -0.00827.

For `O=C1CCSSCCNC(=O)[C@H]2CCCN(C2)C(=O)C2(CCN(C(=O)c3ccc(Cl)s3)CC2)NC(=O)[C@H](Cc2ccccc2)N1` [X F D6 B4 Acid 14], which “fraction fluorescent probe displaced, Screen” value (Acid 14) is on record?
Its value is 0.053.

And the “fraction fluorescent probe displaced, Replicate” value (Acid 14)?
The value was 0.10.
